Reference: patent US20230355605A1, “DRUG FOR ENHANCING FIBRINOLYTIC SYSTEM, AND USE THEREFOR” (priority 2020, published 2023)

How the values were obtained:
[1] = system: rat model of ferric chloride-induced carotid thrombosis; test: Rat model of ferric chloride-induced carotid thrombosis; format: in vivo; conditions: 0.3, 1, 3 mg/kg oral
Protocol: The evaluation of the antithrombotic effect was performed according to the method described in Test Example 3 of WO2010/113022. Specifically, two hours before the procedure, the present compound suspended in a 0.5% sodium carboxymethylcellulose (CMC-Na) aqueous solution was orally administered to test groups of rats at dosages of 0.3, 1, and 3 mg/kg. […] Under anesthesia, ferric chloride was applied to a carotid artery of each rat to induce thrombus formation by damaging the blood vessel, and the time from thrombus formation to occlusion of the carotid artery (occlusion time) up to 30 minutes was measured with a Doppler blood flowmeter. Occlusion of the blood flow was defined as a state in which the average blood flow indicated zero on the chart.
The bleeding effect was also evaluated by measuring the bleeding time. The bleeding time was measured in the same rats as above by sticking the tail of each rat with an animal lancet 20 minutes after the ferric chloride treatment and then observing the presence or absence of blood adhered to filter paper every 30 seconds. The time until bleeding stopped (bleeding time) was used as an index of bleeding.

[2] = system: rats; test: 4-week repeated oral dose toxicity study in rats; format: in vivo
[3] = system: Salmonella typhimurium TA100, TA1535, TA98, TA1537 and Escherichia coli WP2uvrA; test: Mutagenicity study using bacteria (pre-incubation method); format: cell-based; conditions: five strains; metabolic activation method and direct method
Protocol: The gene mutagenicity by the present compound was examined using bacteria.
A study was conducted in the presence of a metabolic activator (hereinafter referred to as a “metabolic activation method”) and in the absence of a metabolic activator (hereinafter referred to as a “direct method”) by a pre-incubation method, using three strains, i.e., Salmonella typhimurium TA100 and TA1535, and Escherichia coli WP2uvrA, to detect base pair substitution gene mutations, and two strains, i.e., Salmonella typhimurium TA98 and TA1537, to detect frameshift gene mutations.

[4] = system: immature rat bone marrow erythrocytes; test: Micronucleus study in rats; conditions: in vivo
Protocol: The present compound was orally administered to rats to examine its micronucleus-inducing properties and bone marrow cell proliferation suppressive effect on immature bone marrow erythrocytes.
Specifically, the present compound was orally administered to rats twice 24 hours apart, and bone marrow smears were prepared 18 to 24 hours after the last administration. 2000 immature erythrocytes (IEs) were observed per individual, and the percentage of micronucleated immature erythrocytes (micronucleated IEs, MNIEs) contained in the immature erythrocytes [MNIEs (%)] was calculated. In addition, 1000 erythrocytes were observed as the total erythrocyte count per individual, and the percentage of IEs in the total erythrocytes [IEs (%)] was determined.

[5] = system: conscious cynomolgus monkeys; test: Effect on cardiovascular and respiratory system (telemetry, blood gas); format: in vivo, cynomolgus monkey; conditions: single oral dose, up to 300 mg/kg
Protocol: The effect of the present compound on the cardiovascular system and the respiratory system was examined by a telemetry method and blood gas measurement using conscious cynomolgus monkeys. Systemic exposure of the test substance was also evaluated. Specifically, a control substance (a 0.5 w/v% carmellose sodium aqueous solution) and the present compound were orally administered at single ascending dosages at intervals of 7 days, and the heart rate, blood pressure (systolic blood pressure, diastolic blood pressure, and mean blood pressure), electrocardiogram (PR interval, QRS duration, QT interval, and QTc interval), respiratory rate, and body temperature were measured before administration and 1, 2, 4, 6, and 24 hours after administration on each administration day with the monkeys unanesthetized and unrestrained. Furthermore, before administration and 2, 6, and 24 hours after administration on each administration day, arterial blood was collected, and blood gases (oxygen partial pressure, carbon dioxide partial pressure, pH, and oxygen saturation) were measured. Systemic exposure was also evaluated by measuring the concentration of the test substance in plasma.

[6] = human, in vivo
Protocol: A placebo-controlled repeated oral dose study was performed to examine the safety, pharmacokinetics, and pharmacodynamics of the present compound during repeated oral dose administration in healthy Japanese adult males (subjects).
The oral dosages were 60 mg (step 1) and 120 mg (step 2) per day, and the number of subjects per step was 9 (6 subjects in the present compound group and 3 subjects in the placebo group). The transition from one step to the next was made after confirming safety. The present compound or the placebo was orally administered once daily after breakfast for 7 days.
After administration of the present compound and the placebo, the following items were evaluated in each subject. Safety: vital signs (axillary temperature, blood pressure while seated, and pulse rate while seated), 12-lead electrocardiogram, laboratory tests (hematological test, blood biochemical test, blood coagulation test, urinalysis, and fecal test), and adverse events • Pharmacokinetics: plasma concentration of the unchanged drug and metabolite concentration • Pharmacological activities: PAI-1 activity and t-PA activity

[7] = biological target: T1, PAI-1 (Homo sapiens, UniProt P05121); test: PAI-1 activity in blood, phase I repeated oral dose study; format: in vivo
T1 construct: from tissue; host or cells: plasma of human subjects (phase I study)
Protocol: The pharmacological activities (PAI-1 activity and t-PA activity) were evaluated using blood collected from the subjects before and after administration of the present compound or the placebo as test samples. Blood was collected before administration and 2, 4, and 8 hours after administration on the first day of the experiment (day 1) and day 7 after the start of the experiment, and on the other days, blood was collected once a day before administration (only before administration on days 2 to 6, day 8, and day 11 after the start of administration).
After collecting blood samples from the subjects, the samples were treated with 3.2% citric acid salt and centrifuged at 4° C., 1,800 g for 10 minutes to obtain plasma. The collected plasma was used for measurement of PAI-1 activity and stored frozen at -80° C. or less until measurement.
The PAI-1 activity was measured using a human PAI-1 activity assay kit (produced by Molecular Innovations Inc.). In this system, a plasma sample collected from a subject is placed on a plate coated with urokinase plasminogen activator (uPA), PAI-1 in the sample is reacted with uPA, and then active PAI-1 bound to uPA is measured as PAI-1 activity using an antigen-antibody reaction with an anti-PAI-1 antibody by measuring the absorbance at a wavelength of 450 nm with a plate reader.

[8] = system: chronic-phase chronic myeloid leukemia (CML) patients; test: Phase II study in combination with TKI in chronic-phase CML patients (4 weeks); format: in vivo, human
Description: The present compound and a tyrosine kinase inhibitor (hereinafter referred to as “TKI”) were used in combination and repeatedly administered orally to patients with chronic-phase chronic myeloid leukemia (CML patients) to evaluate the safety of the present compound and the effectiveness of the present compound against CML.
Oral administration of the TKI, which is a drug used in combination, was continued for a total of 12 weeks, including the 8-week observation period. The safety analysis set (SAS) and the full analysis set (FAS) each consisted of the 21 patients, and the per protocol set (PPS) consisted of 18 patients.

[9] = 30, 60, 120, 250 mg/kg/day oral, 4 weeks

T1 sequence (P05121 24-402): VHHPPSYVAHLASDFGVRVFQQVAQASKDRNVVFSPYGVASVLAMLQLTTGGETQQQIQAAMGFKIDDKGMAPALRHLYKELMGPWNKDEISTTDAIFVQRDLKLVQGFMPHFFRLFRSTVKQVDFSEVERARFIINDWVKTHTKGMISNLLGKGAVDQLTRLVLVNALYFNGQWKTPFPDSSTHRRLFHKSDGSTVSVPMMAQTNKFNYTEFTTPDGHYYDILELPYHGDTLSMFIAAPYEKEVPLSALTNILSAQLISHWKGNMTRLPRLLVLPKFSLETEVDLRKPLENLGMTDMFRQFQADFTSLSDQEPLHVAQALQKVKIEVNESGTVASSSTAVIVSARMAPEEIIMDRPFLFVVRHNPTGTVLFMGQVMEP

SMILES: O=C(Nc1ccc(Cl)cc1C(=O)[O-])c1cccc(-c2cccc3cccnc23)c1.[Na+] [present compound, sodium 5-chloro-2-({ [3-(quinolin-8-yl)phenyl]carbonyl}amino)benzoate]
- occlusion time ([1]; 2 hours before procedure): prolongs the occlusion time in a dose-dependent manner
- bleeding time vs vehicle group ([1]; tail lancet 20 minutes after ferric chloride): no significant difference
- deaths during the administration period [2, 9]: No deaths
- effect on general condition, body weight, food consumption, ophthalmology, ECG, hematology, urinalysis, necropsy, organ weights [2, 9]: No effect
- no-observed-adverse-effect level ([2]; rats, males and females, 4-week repeated oral dose): 250 mg/kg/day
- mutagenesis effect [3]: no mutagenesis effect
- micronucleus-inducing effect on immature rat bone marrow erythrocytes [4]: no micronucleus-inducing effect
- proliferation suppressive effect on bone marrow cells [4]: no proliferation suppressive effect
- effect on the cardiovascular system or the respiratory system [5]: no effect
- AUC on day 7 compared with day 1 [6]: increased
- Tmax, t½ 0-24h, and Cmax′ [6]: not affected by repeated administration
- PAI-1 activity in blood vs placebo ([7]; 60 mg/day oral, days 1 and 7): neither PAI-1 activity nor t-PA activity was different
- time after administration of maximal decrease in PAI-1 activity ([7]; 120 mg/day oral): 8 h
- PAI-1 activity in blood ([7]; 120 mg/day oral, days 1 and 7): decreased
- dosage at which PAI-1 is significantly inhibited and t-PA enhanced in humans ([7]; oral): at least 120 mg per day
- cumulative DMR achievement rate (MR 4.5, BCR-ABL^IS≤0.0032%) ([8]; 120 mg once daily 4 weeks in combination with TKI): increased
- adverse events causally related to the investigational drug ([8]; 120 mg once daily 4 weeks with TKI, 21 patients (SAS)): No adverse events
